Entries after “also recorded” stand apart in the source; their conditions may differ.
How the values were obtained:
Format in all cases: in vivo, human
plasma VEGF = assay: Plasma VEGF ELISA, baseline vs C3D1, HCC patients
plasma Ang2 = assay: Plasma Ang2 level, baseline vs C3D1, HCC patients
plasma Ras p21 = assay: Plasma Ras p21 ELISA, baseline vs C3D1, HCC patients; conditions: for Ras p21 Δ from BL (e) / mean change in sorafenib arm: C3D1, mean of per-subject absolute change, p vs placebo 0.046
Description: ELISA kits for Ras p21 (cat #06490009) were from Oncogene Science Biomarker Group, part of Siemens Diagnostics, Cambridge, Mass. This assay detects all forms of circulating Ras p21 (H-Ras, N-Ras, and […]).
After washing, a streptavidin-horseradish peroxidase conjugate was added.

plasma bFGF = assay: Plasma bFGF level, baseline vs C3D1, HCC patients
[1] = test system: hepatocellular carcinoma (HCC); assay: Overall survival / time to progression in placebo-controlled HCC trial (SHARP), Cox multivariate analysis
Source text: Overall survival (OS) is defined as the time from randomization to death due to any cause. Overall survival (OS) of subjects alive at the time of analysis will be censored at their last date of follow-up.
Time to progression (TTP) is defined as the time from randomization to disease progression (radiological only). Patients without tumor progression at the time of analysis will be censored at their last date of tumor evaluation.

plasma EGF = assay: Plasma EGF level, baseline vs C3D1, HCC patients
plasma IGF-2 = assay: Plasma IGF-2 level, baseline vs C3D1, HCC patients
plasma c-KIT (s-c-Kit) = assay: Plasma c-KIT ELISA, baseline vs cycle 3 day 1 (C3D1), HCC patients
Description: Plasma samples were obtained from patients at the time of screening, C3D1, and at the end of treatment visit.
All six assays were sandwich immunoassays obtained from commercial sources. All assays were performed according to the manufacturers' protocols, as summarized below. All samples were assayed in duplicate and the average value was used for correlative analysis.
ELISA kits for VEGF (cat #DVE00), s-VEGFR-2 (cat #DVR200), HGF (cat #DHG00), and c-KIT (cat #DSCR00) were obtained from R&D Systems.
A monoclonal capture antibody specific to the target protein was provided pre-coated in microplate wells. Appropriately diluted samples and standards were pipetted into the wells, allowing capture of the target protein by the immobilized antibodies. Unbound sample was washed away, and a horseradish peroxidase-conjugated antibody also specific for the target protein was added to the wells. Wells were washed again, and a substrate solution was added to each well. The colored reaction product was measured spectrophotometrically and was translated to the quantity (pg/mL or ng/mL) of biomarker protein in the sample by use of a simultaneously generated standard curve.

plasma HGF = assay: Plasma HGF ELISA, baseline vs C3D1, HCC patients
[2] = plasma level, in response to sorafenib treatment
[3] = sorafenib-treated HCC patients, C3D1 vs baseline
[4] = sorafenib arm, C3D1, mean of per-subject absolute change, p vs placebo <0.0001

Q: With `CNC(=O)c1cc(Oc2ccc(NC(=O)Nc3ccc(Cl)c(C(F)(F)F)c3)cc2)ccn1` [Sorafenib] as the molecule, how does the “VEGF Mean change in sorafenib arm” value (plasma VEGF; [2]) read?
A: Its value is “+195.7%”.

Q: And the “VEGF Δ from BL (e)” value (plasma VEGF; sorafenib arm, C3D1, mean of per-subject absolute change, p vs placebo 0.010)?
A: Its value is 66.8 pg/mL.

Q: What about the “VEGF Mean (d)” value (plasma VEGF; sorafenib arm, C3D1, baseline mean 100.7) of the same molecule?
A: The value was 170.1 pg/mL.

Q: What about the “Direction of change of plasma VEGF in response to sorafenib” value (plasma VEGF; [3]) of the same molecule?
A: Its value is “elevated; also recorded: increase”.

Q: And the “Ang2 Δ from BL (e)” value (plasma Ang2; [4])?
A: The value was -293.0 pg/mL.

Q: What about the “Ang2 Mean (d)” value (plasma Ang2; sorafenib arm, C3D1, baseline mean 7510.0) of the same molecule?
A: Its value is 6456.4 pg/mL.

Q: And the “Direction of change of plasma Ang2 in sorafenib” value (plasma Ang2; [3])?
A: The value was “attenuated and remain unchanged and does not change significantly and None”.

Q: And the “Ras p21 Δ from BL (e) / mean change in sorafenib arm” value (plasma Ras p21; sorafenib arm)?
A: Its value is -259.8 pg/mL.

Q: And the “Ras p21 Δ from BL (e) / mean change in sorafenib arm” value (plasma Ras p21; sorafenib arm, listed as sorafenib)?
A: Its value is -259.8 pg/mL.

Q: What about the “Ras p21 Mean (d)” value (plasma Ras p21; sorafenib arm, C3D1, baseline mean 2115.7) of the same molecule?
A: The value was 1144.7 pg/mL.

Q: And the “Direction of change of plasma Ras p21 in response to sorafenib” value (plasma Ras p21; [3])?
A: Its value is “attenuated; also recorded: decrease”.

Q: And the “bFGF Δ from BL (e)” value (plasma bFGF; sorafenib arm, C3D1, mean of per-subject absolute change, p vs placebo 0.196)?
A: Its value is 2.5 pg/mL.

Q: And the “Direction of change of plasma bFGF in sorafenib” value (plasma bFGF; [3])?
A: Its value is “None”.

Q: What about the “time to progression and/or overall survival compared to placebo treated subjects” value ([1]; HCC patients) of the same molecule?
A: The value was “increases”.

Q: And the “Treatment HR for OS” value ([1]; multivariate analysis of all patients, sorafenib vs placebo, P-value 0.043)?
A: The value was 0.779.

Q: What about the “EGF Δ from BL (e)” value (plasma EGF; sorafenib arm, C3D1, mean of per-subject absolute change, p vs placebo 0.240) of the same molecule?
A: The value was -8.9 pg/mL.

Q: And the “EGF Mean (d)” value (plasma EGF; sorafenib arm, C3D1, baseline mean 61.8)?
A: The value was 53.4 pg/mL.

Q: And the “Direction of change of plasma EGF in sorafenib” value (plasma EGF; [3])?
A: Its value is “decreases; also recorded: Mixed”.

Q: What about the “IGF-2 Mean change in sorafenib” value (plasma IGF-2; [2]) of the same molecule?
A: Its value is −11.3%.

Q: What about the “IGF-2 Δ from BL (e)” value (plasma IGF-2; sorafenib arm, C3D1, mean of per-subject absolute change, p vs placebo 0.145) of the same molecule?
A: Its value is -129.4 ng/mL.

Q: What about the “IGF-2 Mean (d)” value (plasma IGF-2; sorafenib arm, C3D1, baseline mean 938.8) of the same molecule?
A: Its value is 847.9 ng/mL.

Q: And the “Direction of change of plasma IGF-2 in sorafenib” value (plasma IGF-2; [3])?
A: Its value is “decreases”.

Q: And the “c-KIT Mean change in sorafenib arm” value (plasma c-KIT (s-c-Kit); [2])?
A: The value was −33.9%.

Q: What about the “c-KIT Δ from BL (e)” value (plasma c-KIT (s-c-Kit); [4]) of the same molecule?
A: The value was -4.5 ng/mL.

Q: What about the “c-KIT Mean (d)” value (plasma c-KIT (s-c-Kit); sorafenib arm, C3D1, baseline mean 12.2) of the same molecule?
A: The value was 8.6 ng/mL.

Q: What about the “Direction of change of plasma c-KIT in response to sorafenib” value (plasma c-KIT (s-c-Kit); [3]) of the same molecule?
A: The value was “attenuated; also recorded: decrease”.

Q: What about the “median absolute change of plasma HGF levels” value (plasma HGF; intra-patient sorafenib-associated C3D1 change compared to baseline) of the same molecule?
A: The value was -294.02 pg/mL.

Q: And the “HGF Mean change in sorafenib arm” value (plasma HGF; [2])?
A: The value was −7.4%.

Q: What about the “HGF Δ from BL (e)” value (plasma HGF; [4]) of the same molecule?
A: The value was -285.0 pg/mL.

Q: And the “HGF Mean (d)” value (plasma HGF; sorafenib arm, C3D1, baseline mean 2630.0)?
A: The value was 2220.3 pg/mL.

Q: And the “Direction of change of plasma HGF in response to sorafenib” value (plasma HGF; [3])?
A: The value was “attenuated; also recorded: decrease”.

— US20110257035A1, “IDENTIFICATION OF SIGNATURE GENES ASSOCIATED WITH HEPATOCELLULAR CARCINOMA” (Bayer Healthcare LLC, priority 2008, published 2011)
